# From patent EP0002051A1, “Use of butoxybenzylhyoscyamine bromide in pharmaceutical compositions against deafness and tinnitus” (Eisai Co., Ltd., priority 1977, dated 1979)
# Experiments:
# [1] = tested on: hearing power; experiment: clinical test: audiometry just after intravenous injection (30 minutes); type: in vivo; settings: 5o patients
# Experimental: (§1) Among patients who came into the hospital during the period of from September 1976 to September 1977 while complaining of deafness or tinnitus, those meeting the following conditions were chosen.
# (§2) Butoxybenzylhyoscyamine bromide was administered to 74 patients meeting the above conditions.
# (§3) In principle, a mixture of 4 mg of butoxybenzylhyoscyamine bromide with 2o % glucose was intravenously injected at first, and then, two capsules, each containing 5 mg of butoxybenzylhyoscyamine bromide, was administered 3-times per day (namely, 6 capsules being administered as a whole per day). The administration of capsules was conducted for one week.
# (§4) • (a) The standard autiometry (125 - 8ooo Hz, air and bone condition) was carried out before the injection. • (b) The same test was conducted 3o minutes after the injection. In patients complaining of tinnitus, the change of the degree of tinnitus was examined. • (c) The audiometry was carried out on the 7th day from the start of the oral administration. If the patients felt changes of hearing power or tinnitus during this period, the audiometry was appropriately conducted. • (d) During the oral administraion period of 7 days, desease conditions such as (1) hearing power (2) tinnitus, (3) other ear symptoms and (4) side effects were recorded in examination cards.
# (§5) • 1. Change of hearing power just after injection (3o minutes: • With respect to 5o patients, the audiometry was carried out just after the intravenous injection of butoxybenzylhyoscyamine bromide (3o minutes after the injection) to obtain results shown in table 2. Sounds of 25o Hz, 1000 Hz and 8000 Hz were chosen as typical instances of sounds of the low-tone, medium-tone and high-tone regions, respectively, and changes of the hearing power to these sounds were examined. The change within a range of + 5 dB was judged as "no change" and the change exceeding 5 dB was judged as "improvement" or "worsening". [formula] As will be apparent from the results shown in table 2, the highest improvement was 2o dB (1ooo Hz) but in many cases, the improvement was up to 15 dB. The improvement was higher in the order of the low-tone region (18%), the high-tone region (12 %) and the mediom-tone region (8%) and the average improvement of the hearing power after the intravenous injection was about 13 %. • 2. Improvement of Tinnitus: With respect to 41 patients complaining of tinnitus, the change of degree of tinnitus was examined after one week's oral administration to obtain results shown belof in table 3. [formula] As will be apparent from the results shown in table 3, the agent was effective in 15 patients (36%), though the agent of the present invention was ineffective in 24 patients (59%) or the agent worsened the state in 2 patients (5%). • 3. Change of hearing power after administration: Changes of the hearing power were examined during a period of 1 year and three months at longest after one week's administration. With respect to cases where high improving effects were attained, the clinical history will be described.
# [2] = tested on: male and female rats; experiment: chronic toxicity, continuous administration for 25 weeks; type: in vivo
# Experimental: Toxicity of butoxybenzylhyoscyamine bromide in detail: • (A) The acute toxicity, LDSo(mg/kg), is as shown in table 1 [formula] • (B) The compound was administered in an amount of 3.2, 8.0 or 2o mg/kg per day to male and female rats conti- nously during 25 weeks to determine the chronic toxicity.
# [3] = tested on: tinnitus; experiment: clinical test: change of degree of tinnitus after one week's oral administration; type: in vivo; settings: 41 patients complaining of tinnitus
# Experimental: as §1, §2, §3, §4, §5
# [4] = tested on: hearing power; experiment: clinical test: change of hearing power after administration (case histories, audiograms); type: in vivo, patients
# Experimental: as §1, §3, §4, §5
# [5] = rats, 3.2, 8.0 or 2o mg/kg per day
compound,measurement,setting,value
"CCCCOc1ccc(C[N+]2(C)C3CCC2CC(OC(=O)C(CO)c2ccccc2)C3)cc1 (stereo not shown) [butoxybenzylhyoscyamine bromide, N-(p-n-butoxybenzyl)-hyoscyaminium bromide]",improvement of hearing power in many cases,[1]; 3o minutes after intravenous injection of 4 mg,up to 15 dB
same,highest improvement of hearing power,"[1]; 3o minutes after intravenous injection of 4 mg, 1ooo Hz",2o
same,"improvement, low-tone region","[1]; 3o minutes after intravenous injection, 25o Hz, change exceeding 5 dB judged as improvement",18%
same,"improvement, medium-tone region","[1]; 3o minutes after intravenous injection, 1000 Hz, change exceeding 5 dB judged as improvement",8%
same,"improvement, high-tone region","[1]; 3o minutes after intravenous injection, 8000 Hz, change exceeding 5 dB judged as improvement",12%
same,average improvement of the hearing power after the intravenous injection,"[1]; average of low-, medium- and high-tone regions",about 13%
same,change in organs (chronic toxicity),[2]; [5],no substantial change was observed in any organ
same,tests of blood and urine (chronic toxicity),[2]; [5],particular changes or disorders were not observed at all
same,changes observed (chronic toxicity),"[2]; rats, daily administered amount 2o mg/kg","inactive motion, mydriasis, control of increase of the body weight, storage of a small quantity of abdominal dropsy and formation of false membranes on the liver and spleen"
same,"tinnitus: effective, number of patients",[3],15 patients
same,"tinnitus: effective, share of patients",[3],36%
same,"tinnitus: ineffective, number of patients",[3],24 patients
same,"tinnitus: ineffective, share of patients",[3],59%
same,"tinnitus: state worsened, number of patients",[3],2 patients
same,"tinnitus: state worsened, share of patients",[3],5%
same,"tinnitus, Case 2",[4]; person with the improvement of the hearing power,Tinnitus disappeared
same,"hearing loss, Case 6","[4]; person, 3o minutes after intravenous injection",the hearing loss was extremely reduced
same,"hearing power after second 1 week oral administration, Case 4","[4]; person, at termination of the second oral administration",further improved in the low-tone region
same,"hearing power restored on the average, Case 4","[4]; person, fixed perceptive deafness, one intravenous injection then 1 week oral, after 3 weeks",about 1o
same,"hearing power restored at maximum, Case 4","[4]; person, fixed perceptive deafness, one intravenous injection then 1 week oral, after 3 weeks, 2 KHz",2o
same,"change of hearing power, Case 3","[4]; person, fixed sudden deafness of right ear, repeated intravenous injection",remarkably improved in the low-tone region
same,"hearing loss after about 1 month, Case 2","[4]; person, left ear, hearing loss about 5o dB before, one week oral administration with S.G.B.",1o
same,"hearing power after one week's administration, Case 2","[4]; person, left ear, hearing loss about 5o dB before, oral administration while conducting S.G.B.",returned to the level equal to the level at the first examination
same,"change of hearing power, Case 5","[4]; person, perceptive deafness of left ear, oral, 3 weeks, 6 capsules per day",gradually recovered but was not returned to the normal level
same,"change of hearing power, Case 1","[4]; person, perceptive deafness, six capsules of 5 mg per day",the improvement was observed in the low-tone region after the administration
